Columns and labels:
physchem = settings: buffer, pH 6.5
[1] = target: T1, Nuclear receptor ROR-gamma (Homo sapiens, UniProt P51449)
T1 sequence (P51449 whole entry): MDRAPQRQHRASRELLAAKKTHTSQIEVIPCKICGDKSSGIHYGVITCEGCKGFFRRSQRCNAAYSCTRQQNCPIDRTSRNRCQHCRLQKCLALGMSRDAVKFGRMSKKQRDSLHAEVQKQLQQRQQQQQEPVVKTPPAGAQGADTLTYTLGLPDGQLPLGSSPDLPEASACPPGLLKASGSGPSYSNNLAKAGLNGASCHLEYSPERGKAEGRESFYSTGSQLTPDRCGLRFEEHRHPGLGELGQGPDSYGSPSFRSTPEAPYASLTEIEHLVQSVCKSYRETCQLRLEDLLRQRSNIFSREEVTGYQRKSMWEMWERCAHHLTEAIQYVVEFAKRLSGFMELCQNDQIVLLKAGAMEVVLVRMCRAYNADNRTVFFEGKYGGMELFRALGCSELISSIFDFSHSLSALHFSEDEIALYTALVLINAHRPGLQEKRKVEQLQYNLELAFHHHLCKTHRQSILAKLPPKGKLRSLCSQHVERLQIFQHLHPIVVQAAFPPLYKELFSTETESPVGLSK
Description: Inverse agonist activity at GAL4 DBD-fused RORgammat LBD (unknown origin) expressed in HG5LN cells after 18 hrs by luciferase reporter gene assay

[2] = rat, microsomes
Description: Stability in rat microsomes

[3] = target: T2, Nuclear receptor ROR-alpha (Homo sapiens, UniProt P35398)
T2 sequence (P35398 whole entry): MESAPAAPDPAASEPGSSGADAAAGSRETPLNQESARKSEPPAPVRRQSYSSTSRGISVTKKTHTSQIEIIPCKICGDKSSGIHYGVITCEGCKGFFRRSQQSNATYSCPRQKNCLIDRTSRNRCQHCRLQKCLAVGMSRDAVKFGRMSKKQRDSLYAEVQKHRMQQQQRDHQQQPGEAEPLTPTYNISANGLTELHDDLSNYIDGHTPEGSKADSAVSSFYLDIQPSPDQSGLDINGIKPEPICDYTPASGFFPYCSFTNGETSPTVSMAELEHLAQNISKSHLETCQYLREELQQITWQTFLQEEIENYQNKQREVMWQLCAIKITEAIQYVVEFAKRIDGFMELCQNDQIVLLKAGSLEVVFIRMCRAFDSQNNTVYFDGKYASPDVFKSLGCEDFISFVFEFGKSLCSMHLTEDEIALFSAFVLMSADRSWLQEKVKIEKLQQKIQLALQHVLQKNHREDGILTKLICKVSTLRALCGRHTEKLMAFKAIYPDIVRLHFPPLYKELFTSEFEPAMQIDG
Description: Inverse agonist activity at GAL4 DBD-fused RORalpha LBD (unknown origin) expressed in HG5LN cells after 18 hrs by luciferase reporter gene assay

in vitro [4] = settings: human, hepatocytes
[5] = target: T1, Nuclear receptor ROR-gamma; assay: Inverse agonist activity at RORgamma in human CD4+ T cells assessed as inhibition of IL-17A release after 4 days by HTRF assay; assay type: cell-based, T-cell
[6] = target: T3, Retinoic acid receptor gamma (Homo sapiens, UniProt P13631)
T3 sequence (P13631 whole entry): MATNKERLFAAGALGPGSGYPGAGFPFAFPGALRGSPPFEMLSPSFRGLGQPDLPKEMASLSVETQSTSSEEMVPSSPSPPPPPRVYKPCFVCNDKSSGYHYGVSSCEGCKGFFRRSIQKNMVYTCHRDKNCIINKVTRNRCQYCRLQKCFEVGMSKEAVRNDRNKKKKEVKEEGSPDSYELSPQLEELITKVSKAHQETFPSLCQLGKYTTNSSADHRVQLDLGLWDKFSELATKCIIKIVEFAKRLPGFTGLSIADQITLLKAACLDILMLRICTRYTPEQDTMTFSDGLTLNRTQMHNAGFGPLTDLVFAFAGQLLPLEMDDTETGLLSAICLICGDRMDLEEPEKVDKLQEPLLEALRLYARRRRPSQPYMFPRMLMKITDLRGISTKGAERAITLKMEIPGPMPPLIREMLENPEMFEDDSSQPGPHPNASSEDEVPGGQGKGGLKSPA
Description: Inverse agonist activity at GAL4 DBD-fused RARgamma LBD (unknown origin) expressed in human HG5LN cells after 18 hrs by luciferase reporter gene assay

in vitro [7] = settings: human, neonatal keratinocytes
Description: Photocytotoxicity against human neonatal keratinocytes assessed as decrease in cell viability by measuring ratio of IC50 in presence of UV to IC50 in absence of UV after 30 mins by neutral red dye based assay

in vitro [8] = settings: human, plasma
Description: Fraction unbound in human plasma at 5 uM after 4 hrs by equilibrium dialysis based LC-MS/MS analysis

[9] = Photocytotoxicity against human neonatal keratinocytes assessed as decrease in cell viability preincubated for 30 mins followed by 5 J/cm2 UV light irradiation for 15 mins measured after 24 hrs by neutral red dye based assay; assay type: toxicity; settings: neonatal keratinocyte

**Q.** Which logD (physchem) does the source give for Cc1cccc(Cl)c1Oc1nn(-c2ccc(C(=O)O)cc2)c2ccc(C(=O)N(C)C)cc12 here?
**A.** Its logD is 1.5.

**Q.** And the IC50 [1]?
**A.** Its IC50 is 0.12 µM.

**Q.** What about the Stability [2] of the same compound?
**A.** The Stability was “Unstable”.

**Q.** What about the IC50 [3] of the same compound?
**A.** Its IC50 is greater than 10 µM.

**Q.** And the hepatocyte CLint at […], 1 µM (in vitro [4])?
**A.** Its hepatocyte CLint at […], 1 µM is 54 µL/min/1e6 cells.

**Q.** What about the IC50 [5] of the same compound?
**A.** The IC50 was 0.15 µM.

**Q.** And the IC50 [6]?
**A.** Its IC50 is greater than 10 µM.

**Q.** And the selectivity ratio at 0.5 h (in vitro [7])?
**A.** The selectivity ratio at 0.5 h was 36.

**Q.** And the fraction unbound at 4 h, 5 µM (in vitro [8])?
**A.** The fraction unbound at 4 h, 5 µM was 0.024.

**Q.** For CN(C)C(=O)c1ccc2c(c1)c(Sc1c(F)cccc1Cl)nn2-c1ccc(C(=O)O)cc1, which logD (physchem) is on record?
**A.** Its logD is 1.4.

**Q.** And the IC50 [1]?
**A.** Its IC50 is 5 µM.

**Q.** And the Activity [9]?
**A.** The Activity was “Toxic”.

**Q.** And the IC50 [6]?
**A.** Its IC50 is greater than 10 µM.

**Q.** For CN(C)C(=O)c1ccc2c(c1)c([S+]([O-])c1c(Cl)cccc1Cl)nn2-c1ccc(C(=O)O)cc1 (configuration not stated), which logD (physchem) is on record?
**A.** Its logD is 0.4.

**Q.** What about the IC50 [1] of the same compound?
**A.** The IC50 was greater than 10 µM.

**Q.** And the Activity [9]?
**A.** Its Activity is “Toxic”.

**Q.** And the IC50 [6]?
**A.** The IC50 was greater than 10 µM.

From ChEMBL document CHEMBL3867469, “Discovery of phenoxyindazoles and phenylthioindazoles as RORγ inverse agonists” (Bioorg Med Chem Lett, 2016)
